# pIC50: −log10 of the molar value.
# Biological target: PI3K delta (Homo sapiens (Human), UniProt O00329)
# Test: Luciferase-coupled chemiluminescence kinase assay (KinaseGlo, ATP consumption)
# Assay type: biochemical
# Method: Kinase activity and compound inhibition were investigated using one or more of the assay formats described below. The ATP concentrations used in the various assays were approximately equal to or less than the KM for each of the respective kinases. Dose-response experiments were performed using an intra-plate dilution scheme with 10 different inhibitor concentrations in a 384-well microtiter plate. […] Typically N should approximate unity. Curve fitting was performed using XLFit or ActivityBase. Luciferase-Coupled Chemiluminescence Assay Protocol
# Kinase activity is measured as the percent of ATP consumed following the kinase reaction using luciferase-luciferin-coupled chemiluminescence. […] Kinase reactions were initiated by combining test compounds, kinase, and ATP in a 20 μL volume (6 μL volume for 1536-well plate). The reaction mixture was incubated at ambient temperature for 2 h. Following the kinase reaction, a 20 μL (or 3 μL for 1536-well plate) aliquot of KinaseGlo (Promega) was added and the chemiluminescence signal measured using an EnVision plate reader (Perkin Elmer).
# Chain of PI3K delta (O00329 whole entry): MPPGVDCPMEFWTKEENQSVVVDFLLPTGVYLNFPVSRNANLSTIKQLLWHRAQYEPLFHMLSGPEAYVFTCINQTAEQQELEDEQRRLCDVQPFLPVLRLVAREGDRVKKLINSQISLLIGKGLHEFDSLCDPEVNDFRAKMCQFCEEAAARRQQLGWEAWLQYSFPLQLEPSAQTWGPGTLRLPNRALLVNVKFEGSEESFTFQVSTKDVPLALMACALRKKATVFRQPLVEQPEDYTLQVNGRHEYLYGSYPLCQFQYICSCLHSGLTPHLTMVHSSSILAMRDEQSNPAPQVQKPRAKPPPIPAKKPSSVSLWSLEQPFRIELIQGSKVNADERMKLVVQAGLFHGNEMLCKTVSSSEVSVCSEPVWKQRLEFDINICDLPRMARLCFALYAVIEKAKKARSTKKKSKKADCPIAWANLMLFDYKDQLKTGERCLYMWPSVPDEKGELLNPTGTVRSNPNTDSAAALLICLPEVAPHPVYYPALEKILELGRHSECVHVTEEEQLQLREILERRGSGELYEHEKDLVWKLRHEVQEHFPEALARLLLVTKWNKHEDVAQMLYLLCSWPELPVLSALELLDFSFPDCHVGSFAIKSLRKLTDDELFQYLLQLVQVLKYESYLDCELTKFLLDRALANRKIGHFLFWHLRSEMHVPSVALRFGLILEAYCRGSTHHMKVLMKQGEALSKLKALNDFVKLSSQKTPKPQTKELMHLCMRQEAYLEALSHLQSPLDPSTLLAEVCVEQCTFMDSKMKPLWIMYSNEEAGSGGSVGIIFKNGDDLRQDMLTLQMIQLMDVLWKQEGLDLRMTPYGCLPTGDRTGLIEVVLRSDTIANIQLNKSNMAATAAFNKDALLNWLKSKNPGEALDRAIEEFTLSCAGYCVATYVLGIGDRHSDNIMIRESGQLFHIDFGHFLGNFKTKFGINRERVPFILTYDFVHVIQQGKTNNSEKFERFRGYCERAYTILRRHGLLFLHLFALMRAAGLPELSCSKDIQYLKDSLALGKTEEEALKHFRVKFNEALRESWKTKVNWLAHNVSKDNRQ
# Chain of PI3K delta (P27986 whole entry partner): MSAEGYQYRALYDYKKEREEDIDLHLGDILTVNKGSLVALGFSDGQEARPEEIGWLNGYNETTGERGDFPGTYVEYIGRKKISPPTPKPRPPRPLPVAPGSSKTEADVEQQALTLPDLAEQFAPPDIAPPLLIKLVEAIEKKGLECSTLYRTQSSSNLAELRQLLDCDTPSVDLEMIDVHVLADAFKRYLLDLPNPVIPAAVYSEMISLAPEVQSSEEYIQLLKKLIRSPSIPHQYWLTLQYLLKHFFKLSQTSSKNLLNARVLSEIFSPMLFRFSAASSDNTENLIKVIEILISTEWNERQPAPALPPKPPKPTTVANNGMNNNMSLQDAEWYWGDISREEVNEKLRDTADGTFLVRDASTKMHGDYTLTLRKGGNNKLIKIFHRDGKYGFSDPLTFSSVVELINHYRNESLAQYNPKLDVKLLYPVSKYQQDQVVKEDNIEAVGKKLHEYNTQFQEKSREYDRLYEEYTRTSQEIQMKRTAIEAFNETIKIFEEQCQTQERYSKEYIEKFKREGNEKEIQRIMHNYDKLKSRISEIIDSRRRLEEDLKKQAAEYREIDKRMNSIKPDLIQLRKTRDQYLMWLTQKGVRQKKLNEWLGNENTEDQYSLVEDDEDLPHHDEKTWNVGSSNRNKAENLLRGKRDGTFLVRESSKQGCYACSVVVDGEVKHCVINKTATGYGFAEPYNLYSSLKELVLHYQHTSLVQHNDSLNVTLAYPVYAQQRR
row,pIC50,Compound
1,6.30 to 6.60,"Cc1cccc2cc(CNC(=O)c3nccnc3N)c(N(Cc3cccnc3)Cc3cccnc3)nc12 [Compound 46, 3-amino-N-({2-[bis(pyridin-3-ylmethyl)amino]-8-methylquinolin-3-yl}methyl)pyrazine-2-carboxamide]"
2,5.82 to 6.30,"Cc1cccc2cc(CNC(=O)c3nccnc3N)c(N(Cc3ccccn3)Cc3ccccn3)nc12 [Compound 47, 3-amino-N-({2-[bis(pyridin-2-ylmethyl)amino]-8-methylquinolin-3-yl}methyl)pyrazine-2-carboxamide]"
3,5.82 to 6.30,"Cc1cccc2cc(CNC(=O)c3nccnc3N)c(CCCO)nc12 [Compound 50, 3-amino-N-{[2-(3-hydroxypropyl)-8-methylquinolin-3-yl]methyl}pyrazine-2-carboxamide]"
4,> 7.30,"Cc1cccc2nc(CNC(=O)c3nccnc3N)c(-c3ccccc3CN(C)C)cc12 [Compound 52, 3-amino-N-[(3-{2-[(dimethylamino)methyl]phenyl}-5-methylquinolin-2-yl)methyl]pyrazine-2-carboxamide]"
5,5.82 to 6.30,"Cc1cccc2cc(CNC(=O)c3nccnc3N)c(N3CCCN(C(=O)Cn4cnc5ccccc54)CC3)nc12 [Compound 53, 3-amino-N-({2-[4-(1H-benzimidazol-1-ylacetyl)-1,4-diazepan-1-yl]-8-methylquinolin-3-yl}methyl)pyrazine-2-carboxamide]"
6,6.30 to 6.60,"CN(C)C(=O)c1ccccc1-c1cc2ccccc2nc1CNC(=O)c1nccnc1N [Compound 56, 3-amino-N-[(3-{2-[(dimethylamino)carbonyl]phenyl}quinolin-2-yl)methyl]pyrazine-2-carboxamide]"
7,5.82 to 6.30,"Cc1cccc2cc(CNC(=O)c3nccnc3N)c(N3CCCN(Cc4cccn4C)CC3)nc12 [Compound 57, 3-amino-N-[(8-methyl-2-{4-[(1-methyl-1H-pyrrol-2-yl)methyl]-1,4-diazepan-1-yl}quinolin-3-yl)methyl]pyrazine-2-carboxamide]"
8,6.60 to 7.30,"Nc1nccnc1C(=O)NCc1nc2ccccc2cc1-c1ccccc1CN1CCCCC1 [Compound 59, 3-amino-N-({3-[2-(piperidin-1-ylmethyl)phenyl]quinolin-2-yl}methyl)pyrazine-2-carboxamide]"
9,5.82 to 6.30,"Cc1cccc2cc(CNC(=O)c3nccnc3N)c(N3CCCN(Cc4ccncc4)CC3)nc12 [Compound 65, 3-amino-N-({8-methyl-2-[4-(pyridin-4-ylmethyl)-1,4-diazepan-1-yl]quinolin-3-yl}methyl)pyrazine-2-carboxamide]"
10,6.60 to 7.30,"Cc1cccc2cc(CNC(=O)c3nccnc3N)c(N(C)CCN(C)Cc3ccccn3)nc12 [Compound 68, 3-amino-N-{[8-methyl-2-(methyl{2-[methyl(pyridin-2-ylmethyl)amino]ethyl}amino)quinolin-3-yl]methyl}pyrazine-2-carboxamide]"
11,6.30 to 6.60,"CN(C)Cc1cccc(-c2cc3ccccc3nc2CNC(=O)c2nccnc2N)c1 [Compound 69, 3-amino-N-[(3-{3-[(dimethylamino)methyl]phenyl}quinolin-2-yl)methyl]pyrazine-2-carboxamide]"
12,6.30 to 6.60,"Nc1nccnc1C(=O)NCc1nc2ccccc2cc1-c1ccccc1CN1CCOCC1 [Compound 70, 3-amino-N-({3-[2-(morpholin-4-ylmethyl)phenyl]quinolin-2-yl}methyl)pyrazine-2-carboxamide]"
13,5.82 to 6.30,"Nc1nccnc1C(=O)NCc1nc2ccccc2cc1-c1ccc(CN2CCOCC2)cc1 [Compound 71, 3-amino-N-({3-[4-(morpholin-4-ylmethyl)phenyl]quinolin-2-yl}methyl)pyrazine-2-carboxamide]"
14,5.82 to 6.30,"Nc1nccnc1C(=O)NCc1nc2ccccc2cc1-c1cccc(CN2CCOCC2)c1 [Compound 72, 3-amino-N-({3-[3-(morpholin-4-ylmethyl)phenyl]quinolin-2-yl}methyl)pyrazine-2-carboxamide]"
15,5.82 to 6.30,"Cc1ccccc1-c1cc2ccccc2nc1CNC(=O)c1cnc(N)nc1 [Compound 74, 2-amino-N-{[3-(2-methylphenyl)quinolin-2-yl]methyl}pyrimidine-5-carboxamide]"
16,6.30 to 6.60,"Cc1ccccc1-c1cc2ccccc2nc1C(C)NC(=O)c1nccnc1N (stereo not drawn) [Compound 75, 3-amino-N-{1-[3-(2-methylphenyl)quinolin-2-yl]ethyl}pyrazine-2-carboxamide]"

# Continued, compound first:
row,Compound,pIC50
1,"Cc1cccc2cc(CNC(=O)c3nccnc3N)c(N3CCC(NC(=O)Cn4ccnn4)C3)nc12 (stereo not drawn) [Compound 45, 3-amino-N-[(8-methyl-2-{3-[(1H-1,2,3-triazol-1-ylacetyl)amino]pyrrolidin-1-yl}quinolin-3-yl)methyl]pyrazine-2-carboxamide]",5.82 to 6.30
2,"Cc1cccc2cc(CNC(=O)c3nccnc3N)c(N(C)CCN(C)C(=O)Cn3cccn3)nc12 [Compound 49, 3-amino-N-{[8-methyl-2-(methyl{2-[methyl(1H-pyrazol-1-ylacetyl)amino]ethyl}amino)quinolin-3-yl]methyl}pyrazine-2-carboxamide]",> 7.30
3,"Cc1cccc2cc(CNC(=O)c3nccnc3N)c(N(C)CCNC(=O)Cn3ccnn3)nc12 [Compound 51, 3-amino-N-{[8-methyl-2-(methyl{2-[(1H-1,2,3-triazol-1-ylacetyl)amino]ethyl}amino)quinolin-3-yl]methyl}pyrazine-2-carboxamide]",6.60 to 7.30
4,"Cc1cccc2cc(CNC(=O)c3nccnc3N)c(N3CCCN(C(=O)Cn4ccnc4)CC3)nc12 [Compound 54, 3-amino-N-({2-[4-(1H-imidazol-1-ylacetyl)-1,4-diazepan-1-yl]-8-methylquinolin-3-yl}methyl)pyrazine-2-carboxamide]",5.82 to 6.30
5,"Cc1cccc2cc(CNC(=O)c3nccnc3N)c(N3CCCN(C(=O)Cn4ccnc4C)CC3)nc12 [Compound 55, 3-amino-N-[(8-methyl-2-{4-[(2-methyl-1H-imidazol-1-yl)acetyl]-1,4-diazepan-1-yl}quinolin-3-yl)methyl]pyrazine-2-carboxamide]",5.82 to 6.30
6,"Cc1ccc(CN2CCCN(c3nc4c(C)cccc4cc3CNC(=O)c3nccnc3N)CC2)o1 [Compound 58, 3-amino-N-[(8-methyl-2-{4-[(5-methylfuran-2-yl)methyl]-1,4-diazepan-1-yl}quinolin-3-yl)methyl]pyrazine-2-carboxamide]",5.82 to 6.30
7,"Cc1cccc2cc(CNC(=O)c3nccnc3N)c(N3CCCN(C(=O)Cn4ccnn4)CC3)nc12 [Compound 60, 3-amino-N-({8-methyl-2-[4-(1H-1,2,3-triazol-1-ylacetyl)-1,4-diazepan-1-yl]quinolin-3-yl}methyl)pyrazine-2-carboxamide]",6.30 to 6.60
8,"Cc1cccc2cc(CNC(=O)c3nccnc3N)c(N3CCCN(C(=O)Cn4nccn4)CC3)nc12 [Compound 61, 3-amino-N-({8-methyl-2-[4-(2H-1,2,3-triazol-2-ylacetyl)-1,4-diazepan-1-yl]quinolin-3-yl}methyl)pyrazine-2-carboxamide]",5.82 to 6.30
9,"Cc1cccc2cc(CNC(=O)c3nccnc3N)c(N3CCCN(Cc4nccn4C)CC3)nc12 [Compound 62, 3-amino-N-[(8-methyl-2-{4-[(1-methyl-1H-imidazol-2-yl)methyl]-1,4-diazepan-1-yl}quinolin-3-yl)methyl]pyrazine-2-carboxamide]",5.82 to 6.30
10,"Cc1cccc2cc(CNC(=O)c3nccnc3N)c(N3CCCN(Cc4cncn4C)CC3)nc12 [Compound 63, 3-amino-N-[(8-methyl-2-{4-[(1-methyl-1H-imidazol-5-yl)methyl]-1,4-diazepan-1-yl}quinolin-3-yl)methyl]pyrazine-2-carboxamide]",6.60 to 7.30
11,"Cc1cccc2cc(CNC(=O)c3nccnc3N)c(N3CCCN(Cc4cccnc4)CC3)nc12 [Compound 64, 3-amino-N-({8-methyl-2-[4-(pyridin-3-ylmethyl)-1,4-diazepan-1-yl]quinolin-3-yl}methyl)pyrazine-2-carboxamide]",6.30 to 6.60
12,"Cc1cccc2cc(CNC(=O)c3nccnc3N)c(N3CCCN(CC(=O)N(C)C)CC3)nc12 [Compound 66, 3-amino-N-[(2-{4-[2-(dimethylamino)-2-oxoethyl]-1,4-diazepan-1-yl}-8-methylquinolin-3-yl)methyl]pyrazine-2-carboxamide]",5.82 to 6.30
13,"CCCN1CCC[C@@H]1C(=O)N(C)CCN(C)c1nc2c(C)cccc2cc1CNC(=O)c1nccnc1N [Compound 67, 3-amino-N-{[8-methyl-2-(methyl{2-[methyl(1-propyl-D-prolyl)amino]ethyl}amino)quinolin-3-yl]methyl}pyrazine-2-carboxamide]",> 7.30
14,"Cc1cccc2cc(CNC(=O)c3nccnc3N)c(N(C)CCN(C)C(=O)[C@H]3CCCN3C(C)C)nc12 [Compound 73, 3-amino-N-({8-methyl-2-[methyl(2-{methyl[1-(1-methylethyl)-D-prolyl]amino}ethyl)amino]quinolin-3-yl}methyl)pyrazine-2-carboxamide]",> 7.30
15,"CNC(=O)CN(C)CCN(C)c1nc2c(C)cccc2cc1CNC(=O)c1nccnc1N [Compound 76, 3-amino-N-({8-methyl-2-[methyl(2-{methyl[2-(methylamino)-2-oxoethyl]amino}ethyl)amino]quinolin-3-yl}methyl)pyrazine-2-carboxamide]",6.60 to 7.30
16,"Cc1cccc2cc(CNC(=O)c3nccnc3N)c(N(C)CCN(C)CC(=O)N3CCOCC3)nc12 [Compound 77, 3-amino-N-{[8-methyl-2-(methyl{2-[methyl(2-morpholin-4-yl-2-oxoethyl)amino]ethyl}amino)quinolin-3-yl]methyl}pyrazine-2-carboxamide]",6.60 to 7.30
17,"Cc1cccc2cc(CNC(=O)c3nccnc3N)c(N(C)CCN(C)C(=O)c3cnccn3)nc12 [Compound 78, 3-amino-N-{[8-methyl-2-(methyl{2-[methyl(pyrazin-2-ylcarbonyl)amino]ethyl}amino)quinolin-3-yl]methyl}pyrazine-2-carboxamide]",5.82 to 6.30

# Reference: patent US9670212B2, “Inhibitors of PI3K-delta and methods of their use and manufacture” (Exelixis, Inc., priority 2010, dated 2017)
